In patent US4980377A, “1-(aminophenyl)-2-aminopropanone derivatives” (Laboratoire L. Lafon, priority 1984, dated 1990):

Columns and labels:
[1] = test system: mice; test: Interaction with oxotremorine; assay type: in vivo, mouse; conditions: i.p.
Experimental: CRL 41 153 is administered to groups of 6 mice 0.5 hour before the intraperitoneal injection of 0.5 mg/kg of oxotremorine.

[2] = test system: mice; test: Behavioral despair; assay type: in vivo, mouse; conditions: forcibly immersed mice, i.p.
From the text: Half an hour after they have received CRL 41 153, groups of 6 mice are placed in a beaker filled with water to a height of 6 cm. The total period of immobility between the 2nd and 6th minutes following immersion is noted.

[3] = test system: mice; test: Asphyxiant anoxia (gallamine triiodoethylate); assay type: in vivo, mouse; conditions: i.p., curarizing agent
Experimental: Groups of 10 mice receive CRL 41 153 half an hour before the intraperitoneal administration of 32 mg/kg of gallamine triiodoethylate (reference curarizing agent).

[4] = test system: mice; test: Spontaneous motility; assay type: in vivo, mouse; conditions: i.p.
Experimental: 0.5 hour after they have received CRL 41 153, the mice (6 per dose, 12 control animals) are placed in an actimeter, where their motility is recorded for 30 minutes.

[5] = test system: mice; test: Intergroup aggressiveness; assay type: in vivo, mouse; conditions: i.p.
Experimental: After they have stayed for 3 weeks in the two halves of a cage divided by an opaque partition, groups of 3 mice receive CRL 41 153. Half an hour later, the two groups from the same cage are brought together by removal of the partition, and the number of fights which occur in 10 minutes is noted.

[6] = test system: humans; test: Clinical study: vasodilator; assay type: in vivo, human
From the text: In the treatment of diseases associated with the blood circulation through the vessels.

[7] = test system: CNS; test: Neuropsychopharmacological profile as a whole; assay type: in vivo, mice and rats
Experimental: (§1) In the neuropsychopharmacological study which follows, a solution of CRL 41 153 in distilled water (pH 1.5) was administered intraperitoneally in a volume of 20 ml/kg to male mice and 5 ml/kg to male rats.

[8] = test system: mice; test: Interaction with barbital; assay type: in vivo, mouse; conditions: i.p., barbital 220 mg/kg
Experimental: Half an hour after the administration of CRL 41 153, groups of 10 mice receive an intraperitoneal injection of barbital (220 mg/kg).

[9] = test system: rats; test: Interaction with apomorphine in rats; assay type: in vivo, rat; conditions: i.p.
Experimental: CRL 41 153 is administered to groups of 6 rats 0.5 hour before the subcutaneous injection of 0.5 mg/kg of apomorphine.

[10] = test system: mice; test: Motility reduced by habituation to the enclosure; assay type: in vivo, mouse; conditions: i.p.
Experimental: After they have stayed In the actimeters for 18 hours, (he mice (6 per dose, 12 control animals) receive CRL 41 153. They are immediately returned to their respective enclosures and, half an hour later, their motility is recorded for 30 minutes.

[11] = test system: mice; test: Four plate test, traction and electric shock; assay type: in vivo, mouse; conditions: i.p.
Experimental: The test is performed on groups of 10 mice 30 minutes after the administration of CRL 41 153.

[12] = test system: rats; test: Interaction with amphetamine; assay type: in vivo, rat; conditions: i.p.
Experimental: Amphetamine (2 mg/kg) is injected intraperitoneally into groups of 6 rats 30 minutes after the administration of CRL 41 153. […] 4 mg/kg and 16 mg/kg, CRL 41 153 potentiates the intensity and duration of the stereotypies induced by amphetamine.

[13] = test system: mice; test: Overall behavior and reactivities in mice; assay type: in vivo, mouse; conditions: dose not stated
Experimental: as §1
(§2) Groups of three animals are observed before and then 0.25 hour, 0.50 hour, 1 hour, 2 hours, 3 hours and 24 hours after the administration of CRL 41 153.

[14] = test system: dogs; test: Cardiovascular study in anesthetized dogs; assay type: in vivo, dog
Experimental: Two dogs (average weight: 14.1 kg), anesthetized with nembutal, receive CRL 41 194 by intraduodenal administration at successive doses of 0.1 mg/kg, 0.5 mg/kg, 1 mg/kg, 2.5 mg/kg, 5 mg/kg and 10 mg/kg (in solution in physiological solvent).
The blood pressure, the heart rate, the blood flow through the femoral artery, the blood flow through the vertebral artery and the rectal temperature are measured. The coloration of the skin and the coloration of the bile, collected by catheterization of the bile duct after ligature of the cystic duct, are observed.
4 dogs (average weight: 14 kg), anesthetized with nembutal, receive CRL 41 221 by intraduodenal administration at successive doses of 0.1 mg/kg, 0.5 mg/kg, 1 mg/kg, 2.5 mg/kg, 5 mg/kg and 10 mg/kg. The blood pressure, the heart rate, the blood flow through the femoral artery, the blood flow through the vertebral artery and the rectal temperature are measured. The coloration of the skin is observed.

[15] = test system: rats; test: Overall behavior and reactivities in rats; assay type: in vivo, rat; conditions: dose not stated
Experimental: as §1, §2

[16] = test system: gravid White New Zealand female rabbits; test: Teratogenicity in gravid White New Zealand rabbits; assay type: in vivo, rabbit; conditions: day 5 to day 18 of gestation; for Affected foetuses, %: normal limit 1.5%
How it was run: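 Fetuses harvested by cesarean on gestation day 29 were scored for number and for any malformation (limb blockade, anury, tail or skull defects, exencephaly).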

[17] = test system: mice; test: Motility reduced by hypoxic aggression; assay type: in vivo, mouse; conditions: i.p.
Experimental: Half an hour after they have received CRL 41 153, the mice (10 per dose, 20 control animals) are subjected to acute hypobaric anoxia [pressure reduction of 600 mm Hg (i.e. about 8×10^4 Pa) in 90 seconds; release of vacuum in 45 seconds] and are then placed in an actimeter, where their motility is recorded for 10 minutes.

[18] = pH of solutions in distilled water; assay type: physicochemical
Experimental: The neuropsychopharmacological study was undertaken according to the procedures described above for CRL 41 153, CRL 41 213 being adminstered intraperitoneally, in solution in distilled water, in a volume of 20 ml/kg to male mice and a volume of 5 ml/kg to male rats, and the pH of the injected solution varying with the concentration of CRL 41 213 according to the data given in Table II below.

[19] = test system: mice; test: Interaction with apomorphine in mice; assay type: in vivo, mouse; conditions: i.p.
Experimental: Groups of 6 mice receive CRL 41 153 0.5 hour before the subcutaneous injection of 1 or 16 mg/kg of apomorphine.

[20] = test system: mice; test: Interaction with reserpine; assay type: in vivo, mouse; conditions: i.p.
Experimental: Four hours after the intraperitoneal injection of 2.5 mg/kg of reserpine, groups of 6 mice receive CRL 41 153.

With `CCNC(C)C(=O)c1ccc(N)cc1` (stereo not drawn) [CRL 41 225] the “Effect on hypothermic action of oxotremorine” value [1] was “antagonism of the hypothermia”, the “Effect on trembling induced by oxotremorine” value [1] was “a decrease in the intensity of the trembling caused by oxotremorine” and the “Period of immobility due to despair” value [2] was “a decrease in the period of immobility”. For the same molecule, the “Time taken for convulsions to occur” value [3] was “a decrease in the time taken for convulsions and death to occur”, the “Time taken for death to occur” value [3] was “a decrease in the time taken for convulsions and death to occur” and the Spontaneous motor activity [4] was “an increase in the spontaneous motor activity of mice”. For the same molecule, the “Number of fights / intergroup aggressiveness” value [5] was “at strong doses, a decrease in the number of fights”, the “Vasodilator in human clinical use” value [6] was “beneficial vasodilating properties from the clinical point of view” and the “Antidepressant effects (overall)” value ([7]; conclusion of the tests) was “antidepressant and stimulant properties”. The “Stimulant effects (overall)” value ([7]; conclusion of the tests) was “antidepressant and stimulant properties”, the “α-adrenergic stimulant effects (overall)” value ([7]; conclusion of the tests) was “an α-adrenergic stimulation component” and the “Peripheral α-adrenergic signs (mydriasis, salivation, lacrimation, exophthalmos)” value ([7]; species and dose not stated) was “at strong doses, by a reduction in the mydriasis and salivation”. The “Duration of the sleep induced by barbital” value [8] was “a reduction in the duration of the sleep induced by barbital”, the “Effect on stereotypies induced by apomorphine” value [9] was “potentiation of the stereotypies” and the “Motor activity of mice accustomed to their enclosure” value [10] was “resumption in the motor activity of mice accustomed to their enclosure”. For the same molecule, the “Effect on convulsant effects of electric shock” value [11] was “at strong doses, a decrease in the convulsant effects of electric shock”, the “Number of punished passes in the four plate test” value [11] was “an increase in the number of punished passes in the 4 plate test on mice” and the “Effect on stereotypies induced by amphetamine” value [12] was “potentiation of the stereotypies”. The “Overall behavior: observed effects (summary)” value [13] was “excitation with hyperreactivity in mice and rats”, the “Stereotype movements (summary)” value [13] was “the presence of stereotype movements in mice and rats” and the “Vasodilator (conclusion)” value [14] was “vasodiating properties”. The “Overall behavior: observed effects (summary)” value [15] was “excitation with hyperreactivity in mice and rats”, the “Stereotype movements (summary)” value [15] was “the presence of stereotype movements in mice and rats” and the “Affected foetuses, number” value ([16]; 5 mg/kg daily) was 0. For the same molecule, the “Total foetuses (live)” value ([16]; 5 mg/kg daily) was 91, the “Affected foetuses, %” value ([16]; 5 mg/kg daily) was 0% and the “Affected foetuses, number” value ([16]; 10 mg/kg daily) was 0. The “Total foetuses (live)” value ([16]; 10 mg/kg daily) was 95, the “Affected foetuses, %” value ([16]; 10 mg/kg daily) was 0% and the “Motor recovery of mice after hypobaric hypoxia” value [17] was “improvement in the motor recovery”. It also gave a pH ([18]; 0.1 g/liter in distilled water) of 5.0, a pH ([18]; 0.2 g/liter in distilled water) of 4.5 and a pH ([18]; 0.4 g/liter in distilled water) of 4.0. The pH ([18]; 0.8 g/liter in distilled water) was 3.5, the pH ([18]; 2 g/liter in distilled water) was 3.0 and the pH ([18]; 3 g/liter in distilled water) was 2.5. For the same molecule, the pH ([18]; 13 g/liter in distilled water) was 2.0, the pH ([18]; 50 g/liter in distilled water) was 1.5 and the pH ([18]; ≤0.05 g/liter in distilled water) was 5.5. For the same molecule, the “Effect on hypothermia induced by apomorphine” value [19] was “antagonism of the hypothermia”, the “Effect on hypothermia induced by reserpine” value [20] was “antagonism of the hypothermia” and the “Effect on ptosis induced by reserpine” value [20] was “a decrease in the ptosis induced by reserpine in mice”.
